In patent US5576174A, “Catalytic antibody with primary amine cofactor” (The Scripps Research Institute, priority 1995, dated 1996):

Key:
[1] = system: catalytic antibody 72D4 (anti-2, monoclonal antibody raised against quaternary piperidinium hapten 2); assay: Antibody 72D4 catalysed aldol addition of acetone to aldehyde 10a giving 11a, amine 7 as cofactor (RP-HPLC); type: biochemical; details: for Km: random bimolecular model for amine 7 and acetone; for effective molarity kcat/kapp (7): versus background reaction catalysed by 7 alone, aldehyde 10a at 200 mM
Experimental: The aldol reaction of 10a and acetone to 11a with amine 7 as cofactor was followed by direct measurement of the formation of 11a by reverse-phase HPLC. The observed background reaction was first order in acetone (0.5% to 10% v/v) and aldehyde 10a (100-2000 mM), and was also first order in catalyst, either the amine cofactor 7 (50-1500 mM) as free base or hydroxide. The corresponding rate constants are kapp (7) (third order) and kapp (OH^-) (second order) for the apparent rate constant for each process at different pH, and k(7) and kOH^- are the third order rate constants for catalysis by amine 7 as free base and hydroxide, respectively (FIG. 1).
For acetone and aldehyde 10a, the background kuncat is the second order rate constant of their apparent bimolecular reaction, catalyzed by both hydroxide and amine 7 ([7]=0.2 mM and 0.4 mM, respectively).
Aldehydes 10a-10e were used as 25 mM stock solutions in 1:1 acetonitrile/water of the RP-HPLC purified samples. Cofactor 7 was used as 25 mM stock solution in pure water of the RP-HPLC purified trifluoroacetate salt. Antibody 72D4 was purified to homogeneity (SDS PAGE) by ion exchange and Protein G chromatography as described before,^4a at 8-12 mg/mL stock solutions in either bicine (50 mM, pH 8.0) or phosphate (50 mM, pH 7.4) with 100 mM NaCl.
The setup for the kinetics of FIG. 2 is representative: a stock solution (1.8 mL) containing the antibody ([…]) and acetone (1.11% v/v) in 50 mM bicine, 100 mM NaCl, pH 8.0 was separated into four portions of […]. To each was added 3.6 mL of a 25 mM stock solution of each of the aldehydes 10a to 10d. Each […] portion was further separated into four 90 mL portions and 10 mL of solutions of amine 7 in 50 mM bicine, 100 mM NaCl (1 mM, 2 mM, 4 mM, 8 mM) were added. Finally, 50 mL of each 100 mL sample was added to 0.5 mL of a 25 mM stock solution of hapten 12 in water. In each manipulation, the samples were vigorously shaken using a Vortex shaker to ensure homogeneity.

[2] = system: catalytic antibody 72D4 (anti-2, monoclonal antibody raised against quaternary piperidinium hapten 2); assay: Antibody 72D4 catalysed formation of α-aminonitrile 17 from amine 7, acetone and cyanide; type: biochemical
Experimental: Conditions: 50 mM bicine, 0.2M NaCN, pH 9.0, 20° C. […] The reaction was initiated by addition of a concentrated stock solution of either amine 7 or buffered NaCN (no difference was noted). As above, pairs of identical antibody solutions, with and without hapten 12 as inhibitor, were used for measuring the background and catalyzed reaction rates, respectively. 15 mL samples were quenched at 45 sec intervals by mixing with 15 mL 0.5N TFA in water, immediately frozen, and later analyzed by RP-HPLC (C-18 as above, 92.5% H2 O, 7.5% CH3 CN, tR (17)=7.8 minutes) against an internal standard (4-hydroxy-benzoic acid, tR =9.4 minutes). […] The background rate kuncat was derived from the inhibited samples (V vs. [S], 6 points, r^2 =1.0). KM and Vmax were obtained from the Lineweaver-Burk plot of 1/V vs. 1/[S] as above (50, 100, 200, 400, 800, 1600 mM 7, 6 points, r^2 =0.98).

For `CC(=O)Nc1ccc(CC(C)C=O)cc1` (racemic) [aldehyde 10a, 4-(3'-oxo-2'-methyl-prop-1'-yl)-acetanilide], the “rate acceleration kcat/kuncat (aldehyde 10a)” value ([1]; apparent effective molarity, aldehyde 10a varied, [7]=0.4 mM, table 1) was 102 M, the kcat ([1]; pH 8.0, antibody-acetone-amine complex reacting with aldehyde 10a (200 mM fixed)) was 0.014 M⁻¹ s⁻¹ and the kcat ([1]; pH 9.0, antibody-acetone-amine complex reacting with aldehyde 10a) was 0.053 M⁻¹ s⁻¹.
With `CC(C)=O` [acetone] the “rate acceleration kcat/kuncat (acetone)” value ([1]; apparent effective molarity, acetone varied, [7]=0.2 mM, table 1) was 123 M and the Km ([1]; pH 8.0, 200 mM fixed aldehyde 10a, read-out: KM (acetone)) was 19000 µM.
`NCc1ccc(C(=O)NCCO)cc1` [amine 7, N(hydroxyethyl)-4(aminomethyl)-benzamide] showed a kcat ([2]; pH 9.0, 1% v/v acetone, 0.2M CN-, 20° C., amine 7 varied) of 0.012 s⁻¹, a Km ([2]; pH 9.0, 1% v/v acetone, 0.2M CN-, 20° C., amine 7 varied 50-1600 mM) of 130 µM and a Km ([1]; pH 8.0, 200 mM fixed aldehyde 10a, read-out: KM (7)) of 45 µM. The “effective molarity kcat/kapp (7)” value ([1]; pH 8.0) was 370 M, the Km ([1]; pH 9.0, read-out: KM (7)) was 95 µM and the “effective molarity kcat/kapp (7)” value ([1]; pH 9) was 440 M. For the same molecule, the “rate acceleration kcat/kuncat (cofactor 7)” value ([1]; specific activation of the cofactor upon binding to the antibody, table 1) was 950.
With `C[N+]1(Cc2ccc(C(=O)NCCO)cc2)CCCCC1` [hapten 12, reference compound] the “inhibition of catalysis by hapten 12” value ([2]; formation of α-aminonitrile 17) was “quantitatively inhibited” and the “inhibition of catalytic activity by addition of hapten 12” value ([1]; 250 mM hapten 12 in the assay set-up) was “quantitatively inhibited”.
